Data as given in patent US20220002268A1, “NOVEL HETEROARYL-TRIAZOLE AND HETEROARYL-TETRAZOLE COMPOUNDS AS PESTICIDES” (Bayer Aktiengesellschaft, priority 2019, published 2022).

Experiments:
Diabrotica balteata = Diabrotica balteata spray test; assay type: in vivo; conditions: 168 h, 160 gg/well, after 7 days, read-out: efficacy (seedlings grown)
Method: Diabrotica balteata—Spray Test Solvent: 78.0 parts by weight of acetone • • 1.5 parts by weight of dimethylformamide Emulsifier: alkylarylpolyglycol ether
(§1) To produce a suitable preparation of active compound, 1 part by weight of active compound is mixed with the stated amount of solvent, and the concentrate is diluted with water, containing an emulsifier concentration of 1000 ppm, to the desired concentration. Further test concentrations are prepared by dilution with emulsifier containing water.
Soaked wheat seeds (Triticum aestivum) are placed in a multiple well plate filled with agar and some water and are incubated for 1 day to germinate (5 seeds per well). The germinated wheat seeds are sprayed with a test solution containing the desired concentration of the active ingredient. Afterwards each unit is infected with 10-20 larvae of the banded cucumber beetle (Diabrotica balteata).
After 7 days efficacy in % is determined. 100% means all the seedlings have grown up like in the untreated, uninfected control; 0% means none of the seedlings have grown.

Meloidogyne incognita = Meloidogyne incognita test; assay type: in vivo; conditions: 20 ppm, after 14 days
Method: Meloidogyne incognita—Test Solvent: 125.0 parts by weight of acetone
(§2) To produce a suitable preparation of active compound, 1 part by weight of active compound is mixed with the stated amount of solvent, and the concentrate is diluted with water to the desired concentration.
Vessels are filled with sand, a solution of the active ingredient, a suspension containing eggs and larvae of the southern root-knot nematode (Meloidogyne incognita) and salad seeds. The salad seeds germinate and the seedlings grow. Galls develop in the roots.
After 14 days the nematicidal activity is determined on the basis of the percentage of gall formation. 100% means no galls were found and 0% means the number of galls found on the roots of the treated plants was equal to that in untreated control plants.

Ctenocephalides felis [1] = assay: Ctenocephalides felis oral test; assay type: in vivo; conditions: 48 h, 100 ppm in cattle blood, after 2 days
Method: Ctenocephalides felis—Oral Test Solvent: dimethyl sulfoxide
To produce a suitable preparation of active compound, 10 mg of active compound are dissolved in 0.5 ml solvent, and the concentrate is diluted with cattle blood to the desired concentration.
Approximately 20 adult unfed cat fleas (Ctenocephalides felis) are placed in flea chambers. The blood chamber, sealed with parafilm on the bottom, are filled with cattle blood supplied with compound solution and placed on the gauze covered top of the flea chamber, so that the fleas are able to suck the blood. The blood chamber is heated to 37° C. whereas the flea chamber is kept at room temperature.
After 2 days mortality in % is determined. 100% means all the fleas have been killed; 0% means none of the fleas have been killed.

Boophilus microplus = Boophilus microplus injection test; assay type: in vivo; conditions: Rhipicephalus microplus, 168 h; 20 gg/animal, injection into abdomen, after 7 days; read-out: efficacy (infertile eggs)
Method: Boophilus microplus—Injection Test Solvent: dimethyl sulfoxide To produce a suitable preparation of active compound, 10 mg of active compound are dissolved in 0.5 ml solvent, and the concentrate is diluted with solvent to the desired concentration. Five adult engorged female ticks (Boophilus microplus) are injected with 1 μl compound solution into the abdomen. The ticks are transferred into replica plates and incubated in a climate chamber. After 7 days egg deposition of fertile eggs is monitored. Eggs where fertility is not visible are stored in a climate chamber till hatching after about 42 days. An efficacy of 100% means all eggs are infertile; 0% means all eggs are fertile.

Phaedon cochleariae = Phaedon cochleariae spray test; assay type: in vivo; conditions: 168 h, after 7 days
Method: Phaedon cochleariae—Spray Test Solvent: 78.0 parts by weight of acetone • • 1.5 parts by weight of dimethylformamide Emulsifier: alkylarylpolyglycol ether
(§3) To produce a suitable preparation of active compound, 1 part by weight of active compound is mixed with the stated amount of solvents and is diluted with water, containing an emulsifier concentration of 1000 ppm, to the desired concentration. Further test concentrations are prepared by dilution with emulsifier containing water.
Chinese cabbage (Brassica pekinensis) leaf disks are sprayed with a preparation of the active ingredient of the desired concentration. Once dry, the leaf disks are infested with mustard beetle larvae (Phaedon cochleariae).
After 7 days mortality in % is determined. 100% means all beetle larvae have been killed and 0% means none of the beetle larvae have been killed.

Spodoptera frugiperda = Spodoptera frugiperda spray test; assay type: in vivo; conditions: 168 h, after 7 days
Method: Suodontera frugiuerda—Spray Test Solvent: 78.0 parts by weight acetone • 1.5 parts by weight dimethylformamide Emulsifier: alkylarylpolyglycol ether
as §3
Maize (Zea mays) leaf sections are sprayed with a preparation of the active ingredient of the desired concentration. Once dry, the leaf sections are infested with fall armyworm larvae (Spodoptera frugiperda).
After 7 days mortality in % is determined. 100% means all caterpillars have been killed and 0% means none of the caterpillars have been killed.

Myzus persicae = Myzus persicae oral test; assay type: in vivo; conditions: 120 h, after 5 days
Method: Myzus persicae—Oral Test Solvent: 100 parts by weight acetone
as §2
50 μl compound solution is filled in microtiter plates and 150 μl IPL41 insect medium (33%+15% sugar) is added to obtain a total volume of 200 μl per well. Afterwards the plates are sealed with parafilm through which a mixed population of the green peach aphid (Myzus persicae) can suck on the compound preparation.
After 5 days mortality in % is determined. 100% means all aphids have been killed and 0% means none of the aphids have been killed.

Nezara viridula = Nezara viridula spray test; assay type: in vivo; conditions: 96 h, after 4 days
Method: Nezara viridula—Spray Test Solvent: 78.0 parts by weight of acetone • • 1.5 parts by weight of dimethylformamide Emulsifier: alkylarylpolyglycol ether
as §1
Barley plants (Hordeum vulgare) infested with larvae of the southern green stink bug (Nezara viridula) are sprayed with a test solution containing the desired concentration of the active ingredient.
After 4 days mortality in % is determined. 100% means all the stink bugs have been killed; 0% means none of the stink bugs have been killed.

[2] = test system: Aedes aegypti strain MONHEIM; assay: Aedes aegypti test (AEDSAE surface treatment & contact assay); assay type: in vivo; conditions: surface concentration 20 mg/m^2, 30 minutes exposure, 24 hours after contact, read-out: efficacy (mortality)
Method: Aedes aegyti Test (AEDSAE Surface Treatment & Contact Assay) Solvent: Aceton+2000 ppm rapeseed oil methyl ester (RME)
In order to produce a sufficient, active ingredient containing solution it is necessary to solve the test compound in the solvent-mix (acetone at 2 mg/ml/RME 2000 ppm). This solution is pipetted onto a glazed tile and after evaporation of the acetone, adult mosquitoes of the species Aedes aegypti strain MONHEIM are placed onto the dried surface. The exposure time is 30 minutes.
(§4) Mortality in percent (%) is determined 24 hours after contact to the treated surface. 100% mortality means that all tested insects are dead, whereas 0% means that no insect died.

Nilaparvata lugens = Nilaparvata lugens spray test; assay type: in vivo; conditions: 96 h, after 4 days
Method: Nilaparvata lugens—Spray Test Solvent: 78.0 parts by weight of acetone • • 1.5 parts by weight of dimethylformamide Emulsifier: alkylarylpolyglycol ether
as §3
Rice plants (Oryza sativa) are sprayed with a preparation of the active ingredient of the desired concentration and the plants are infested with the brown planthopper (Nilaparvata lugens).
After 4 days mortality in % is determined. 100% means all planthoppers have been killed and 0% means none of the planthoppers have been killed.

[3] = test system: Anopheles funestus strain FUMOZ-R; assay: whole plant or invertebrate; assay type: in vivo; conditions: read-out: efficacy (mortality)
Method: Anopheles funestus Test (ANPHFU Surface Treatment & Contact Assay) Solvent: Aceton+2000 ppm rapeseed oil methyl ester (RME)
In order to produce a sufficient, active ingredient containing solution it is necessary to solve the test compound in the solvent-mix (acetone at 2 mg/ml/RME 2000 ppm). This solution is pipetted onto a glazed tile and after evaporation of the acetone, adult mosquitoes of the species Anopheles funestus strain FUMOZ-R (Hunt et al., Med. Vet. Entomol. 2005 September; 19(3): 271-275) are placed onto the dried surface. The exposure time is 30 minutes.
as §4

[4] = test system: Culex quinquefasciatus strain P00; assay: whole plant or invertebrate; assay type: in vivo; conditions: read-out: efficacy (mortality)
Method: Culex quinquefasciatus Test (CULXFA Surface Treatment & Contact Assay) Solvent: Aceton+2000 ppm rapeseed oil methyl ester (RME)
In order to produce a sufficient, active ingredient containing solution it is necessary to solve the test compound in the solvent-mix (acetone at 2 mg/ml/RME 2000 ppm). This solution is pipetted onto a glazed tile and after evaporation of the acetone, adult mosquitoes of the species Culex quinquefasciatus strain P00 are placed onto the dried surface. The exposure time is 30 minutes.
as §4

Rhipicephalus sanguineus = Rhipicephalus sanguineus in-vitro contact test, adult brown dog ticks; assay type: in vivo; conditions: 5 gg/cm^2, after 48 hours
Method: (§5) 9 mg compound is solved in 1 ml acetone and diluted with acetone to the desired concentration. 250 μl of the test solution is filled in 25 ml glass test tubes and homogeneously distributed on the inner walls by rotation and tilting on a shaking device (2 h at 30 rpm). With a compound concentration of 900 ppm, an inner surface of 44.7 cm^2 and a homogeneous distribution, a dose of 5 μg/cm^2 is achieved.
After the solvent has evaporated, each test tube is filled with 5-10 adult brown dog ticks (Rhipicephalus sanguineus), closed with a perforated lid and incubated in a lying position at room temperature and relative humidity. After 48 hours efficacy is determined. The ticks are patted on the ground of the tubes and are incubated on a heating plate at 45-50° C. for at most 5 minutes. Immotile or uncoordinated moving ticks, which are not able to escape the heat by climbing upwards, are marked as dead or moribund.
An efficacy of 100% means all ticks are dead or moribund; 0% means no ticks are dead or moribund.

Ctenocephalides felis [5] = assay: Ctenocephalides felis in-vitro contact test, adult cat flea; assay type: in vivo; conditions: 5 μg/cm^2, after 48 hours
Method: as §5
After the solvent has evaporated, each test tube is filled with 5-10 adult cat fleas (Ctenocephalides felis), closed with a perforated lid and incubated in a lying position at room temperature and relative humidity. After 48 hours efficacy is determined. The fleas are patted on the ground of the tubes and are incubated on a heating plate at 45-50° C. for at most 5 minutes. Immotile or uncoordinated moving fleas, which are not able to escape the heat by climbing upwards, are marked as dead or moribund.
An efficacy of 100% means all fleas are dead or moribund; 0% means no fleas are dead or moribund.

Tetranychus urticae = Tetranychus urticae spray test OP-resistant; assay type: in vivo; conditions: 144 h, after 6 days
Method: Tetranychus urticae—Spray Test OP-Resistant Solvent: 78.0 parts by weight acetone • 1.5 parts by weight dimethylformamide Emulsifier: alkylarylpolyglycol ether
as §3
French bean (Phaseolus vulgaris) leaf disks infected with all instars of the two spotted spidermite (Tetranychus urticae), are sprayed with a preparation of the active ingredient of the desired concentration.
After 6 days mortality in % is determined. 100% means all spider mites have been killed and 0% means none of the spider mites have been killed.

[6] = log P by HPLC on reversed phase, acidic range; assay type: physicochemical; conditions: reversed phase HPLC column, LC-UV, 0.1% formic acid in water and acetonitrile
Method: (§6) Measurement of log P values was performed according to EEC directive 79/831 Annex V.A8 by HPLC (High Performance Liquid Chromatography) on reversed phase columns with the following methods. […] Calibration was done with straight-chain alkan-2-ones (with 3 to 16 carbon atoms) with known log P values (measurement of log P values using retention times with linear interpolation between successive alkanones). Lambda-max-values were determined using UV-spectra from 200 nm to 400 nm and the peak values of the chromatographic signals.

[7] = log P by HPLC on reversed phase, neutral range; assay type: physicochemical; conditions: reversed phase HPLC column, LC-UV, 0.001 molar ammonium acetate solution in water and acetonitrile
Method: as §6, with “methods. Instrument(s): Agilent 1100 LC system, Agilent MSD system, HTS PAL; Waters IClass Acquity UPLC, SQD2 (MS), PDA (UV).” for “methods.”

O=C(c1cc(Cl)cc(C(F)(F)F)c1)N(Cc1ncnn1-c1ncccn1)CC1CC1 [Example I-001, 3-Chloro-N-(cyclopropylmethyl)-N-{[1-(pyrimidin-2-yl)-1H-1,2,4-triazol-5-yl]methyl}-5-(trifluoromethyl)benzamide]
95%: mortality at 100 ppm (Ctenocephalides felis [1])
90%: nematicidal activity (gall formation) (Meloidogyne incognita)
100%: pest or weed control at 160 µg/well (Diabrotica balteata) | pest or weed control at 0.02 mg (Boophilus microplus) | mortality at 500 g/ha (Phaedon cochleariae) | mortality at 500 g/ha (Spodoptera frugiperda) | mortality at 20 ppm (Myzus persicae)

O=C(c1cc(C(F)(F)F)cc(C(F)(F)F)c1)N(Cc1ncnn1-c1ncccn1)CC1CC1 [Example I-004]
100%: pest or weed control at 160 µg/well (Diabrotica balteata) | mortality at 100 ppm (Ctenocephalides felis [1]) | pest or weed control at 0.02 mg (Boophilus microplus) | mortality at 500 g/ha (Nezara viridula) | mortality at 500 g/ha (Phaedon cochleariae) | mortality at 500 g/ha (Nilaparvata lugens) | mortality at 500 g/ha (Spodoptera frugiperda) | mortality at 20 ppm (Myzus persicae)
85 to 100%: mortality at 20 mg/m2 [2]

O=C(NCc1ncnn1-c1ncccn1)c1cc(Cl)cc(C(F)(F)F)c1 [Example I-005]
100%: pest or weed control at 160 µg/well (Diabrotica balteata) | efficacy (ticks dead or moribund) (Rhipicephalus sanguineus) | mortality at 100 ppm (Ctenocephalides felis [1]) | pest or weed control at 0.02 mg (Boophilus microplus) | mortality at 500 g/ha (Phaedon cochleariae) | efficacy (fleas dead or moribund) (Ctenocephalides felis [5]) | mortality at 500 g/ha (Spodoptera frugiperda) | mortality at 20 ppm (Myzus persicae)
85 to 100%: mortality at 4 mg/m2 [3] | mortality at 20 mg/m2 [3] | mortality at 4 mg/m2 [4] | mortality at 20 mg/m2 [4] | mortality at 20 mg/m2 [2]

O=C(NC1(c2ncnn2-c2ncccn2)CC1)c1cc(Cl)cc(OC(F)(F)F)c1 [Example I-016]
90%: mortality at 500 g/ha (Tetranychus urticae)

c1cnc(-n2ncnc2CNCC2CC2)nc1 [a-001, 1-cyclopropyl-N-{[1-(pyrimidin-2-yl)-1H-1,2,4-triazol-5-yl]methyl}methanamine]
0.83: chromatographic logP [6] | chromatographic logP [7]
